Test results: patent US20160222412A1, “R[…] WITH S[…]-LOOP” (Tocagen Inc., priority 2013, published 2016)

B1: 6A-466: RRV with yCD2 and minimum IRES, 6As, base 183 to 544 of SEQ ID NO:41 (nucleic acid, listed as Encephalomyocarditis virus)
DNA: AGGAAGCAGTTCCTCTGGAAGCTTCTTGAAGACAAACAACGTCTGTAGCGACCCTTTGCAGGCAGCGGAACCCCCCACCTGGCGACAGGTGCCTCTGCGGCCAAAAGCCACGTGTATAAGATACACCTGCAAAGGCGGCACAACCCCAGTGCCACGTTGTGAGTTGGATAGTTGTGGAAAGAGTCAAATGGCTCTCCTCAAGCGTATTCAACAAGGGGCTGAAGGATGCCCAGAAGGTACCCCATTGTATGGGATCTGATCTGGGGCCTCGGTGCACATGCTTTACATGTGTTTAGTCGAGGTTAAAAANCGTCTAGGCCCCCCGAACCACGGGGACGTGGTTTTCCTTTGAAAAACACGAT
modifications: (492)..(492) “n” can be present or absent, if present n is “A”

Columns and labels:
[1] = Intravenous Toca 511 in Balb/c mice, long-term vector biolocalization study; type: in vivo
From the text: Intravenous injection of Toca 511 into Balb/C mice. 2.35×10̂6 or 2.35×10̂5 TU of Toca 511 was intravenously administered to 8-week-old female Balb/C mice. Approximately 180 days post infection, genomic DNA from various tissues was harvested for bio-locolization study. Genomic DNA from abnormal tissues such as thymus or lymph node was extracted for sequence analysis of the envelope and IRES-yCD2 cassette.
RRV can undergo changes in the length of the oligo adenosine in the A bulge of the EMCV IRES in vivo. […] In a vector biolocalization study conducted as part of a preclinical package to support initiation of clinical trials, Toca 511 was injected intravenously into a permissive mouse strain (Balb/c mice) to evaluate long-term vector bio-localization. […] DNA from the abnormal thymus or lymph nodes of 3 mice were harvested for molecular PCR cloning of proviral sequences, followed by sequencing analysis. One feature was that there were multiple copies of the virus including recombinants with endogenous mouse MCF envelope sequences present, as occurs with lymphomagenesis with ecotropic MLV infection (Fan, 1997). Further analyses are planned for a future publication. […] It appears that the oligo A number drifts preferentially towards longer oligo A in the A bulge. However, the nature of this preference was undefined in the in vivo study.

U87-MG cells = experiment: yCD2 protein expression by immunoblot in infected U87-MG cells; type: cell-based, human; conditions: fully infected U87-MG cells
Method: RRVs containing various numbers of A's in the J-K bifurcation region express similar levels of transcripts but different levels of protein expression. The viral supernatant from HT1080 cells was then used to infect naive U87-MG cells at multiplicity of infection (MOI) of 0.1. At day 10 post infection, when the cells were fully infected, cellular viral RNA levels were measured by quantitative real-time polymerase chain reaction (qRT-PCR), and protein expression level of yCD2 was examined by immunoblotting (Perez et al., 2012). The cellular viral RNA expression levels were measured using two different primer sets, located in the env (5′Env2: 5′-[…]-3′ (SEQ ID NO:47), 3′Env2: 5′-[…]-3′ (SEQ ID NO:48), probe: 5′FAM-[…]-3′BHQ (SEQ ID NO:49)) and in yCD2 region (5′yCD2: 5′-[…]-3′ (SEQ ID NO:50), 3′yCD2: 5′-[…]-3′ (SEQ ID NO:51), probe: 5′FAM-[…]-3′BHQ (SEQ ID NO:52)), respectively, (FIG. 2). The relative level of RNA from each vector was calculated using 2-^ΔΔ(Ct) method with respect to the vector containing the 6As. […] Therefore, the effect of the number of A's in the loop were analyzed with another transgene for which the protein expression assay was well defined. […]
Immunoblot and cell-based yCD2 enzymatic assay. […] Quantity One software (Bio-Rad) was used to quantify the signal of yCD2 and GAPDH detected on the immunoblots. […]

Row | Molecule | mice with abnormalities in lymphoid tissues ([1]; higher doses, 180 days, depending on the cohort) | change of oligo A length in A bulge of integrated proviruses in vivo ([1]; intravenous, approximately 180 days, abnormal thymus or lymph node) | yCD2 protein expression in comparison to the 6A variant with full-length IRES (U87-MG cells)
1 | Toca 511: RRV with a 7A IRES expressing yCD2 (pAC3-yCD2; SEQ ID NO:22) | 10-20% | heterogeneous expansions of 7A to 8A, 9A, 10A, 11A and 12A and a contraction of 7A to 6A | –
2 | B1 | – | – | shows expression of yCD2
